Test results: patent publication US11000033B2, “Ketone or oxime compound, and herbicide” (NISSAN CHEMICAL CORPORATION, priority 2014, dated 2021)

Tests used:
Type in all cases: in vivo
Monochoria vaginalis [1] = assay: Test Example 1: herbicidal activity, application before weed generation in submerged conditions (symbol C); details: application herbicide amount 320 g/ha
In short: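 Paddy pre-emergence test. Formulated emulsion, water-diluted to a predetermined rate, is applied to floodwater on sowing day; rice transplanted at 2.5 leaves. Effect read at 3 weeks on a 0–5 herbicidal-ratio scale.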

Monochoria vaginalis [2] = assay: Test Example 2: herbicidal activity, application during weed generation in submerged conditions (symbol C); details: Table 23; application herbicide amount 320 g/ha; grade 0-5 by criteria of Test Example 1
In short: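 Paddy pot test, submerged (4 cm water), alluvial soil, mixed sowing; greenhouse 25–30° C. Emulsion formulation diluted to predetermined rate, applied onto floodwater at 1–2 leaf stage. Visual herbicidal rating at 3 wk post-treatment.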

[3] = test system: Echinochloa crus-galli var. crus-galli; assay: Test Example 3: herbicidal effect by foliage application, Wagner pot (symbol H); details: application herbicide amount 320 g/ha
In short: (§1)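 Foliar spray of water-diluted emulsion formulation at a predetermined herbicide amount onto 14-day-old plants in flooded alluvial soil (water depth 0.1–0.5 cm), greenhouse 25–30 °C; rice sown alongside. Scored 3 wk post-application on set criteria.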

Leptochloa chinensis = assay: Test Example 3: herbicidal effect by foliage application, Wagner pot (symbol D); details: application herbicide amount 320 g/ha
In short: as §1

Avena fatua = assay: Test Example 4: herbicidal effect by soil treatment (symbol I); details: 320 g/ha
In short: (§2)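 Seeds were sown in sterilized diluvial soil, covered with about 1.5 cm of soil, and the soil surface was sprayed with a water-diluted emulsion of the compound at a predetermined rate. Plants grew in a greenhouse at 25° C. to 30° C.; effects were scored visually 3 weeks after application.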

Abutilon theophrasti = assay: Test Example 4: herbicidal effect by soil treatment (symbol M); details: 320 g/ha
In short: as §2

Chenopodium album = assay: Test Example 4: herbicidal effect by soil treatment (symbol O); details: 320 g/ha
In short: as §2

Lolium multiflorum Lam. = assay: Test Example 5: herbicidal effect by foliage application, plastic box (symbol K); details: 320 g/ha, 3 weeks after application
In short: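 Seeds were sown in sterilized diluvial soil, covered with about 1.5 cm of soil and grown 14 days in a greenhouse at 25° C. to 30° C. An emulsifiable formulation diluted in water to a set rate was sprayed over foliage, and injury was scored 3 weeks later.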

corn = assay: Test Example 5: effect on crop by foliage application, plastic box (symbol c); details: 320 g/ha, 3 weeks after application
In short: (§3)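 Sterilized diluvial soil, plastic box (21 × 13 × 7 cm); spot sowing, ~1.5 cm soil cover; greenhouse 25–30° C.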

soybean = assay: Test Example 5: effect on crop by foliage application, plastic box (symbol d); details: 320 g/ha, 3 weeks after application
In short: as §3

rapeseed = assay: Test Example 5: effect on crop by foliage application, plastic box (symbol g); details: 320 g/ha, 3 weeks after application
In short: as §3

| SMILES | Herbicidal effect grade, C: Monochoria vaginalis (Monochoria vaginalis [1]) | Herbicidal effect grade, C: Monochoria vaginalis (Monochoria vaginalis [2]) | herbicidal effect on H (Echinochloa crus-galli var. crus-galli), grade 0-5 [3] | herbicidal effect on D (Leptochloa chinensis), grade 0-5 (Leptochloa chinensis) | I: Avena fatua, herbicidal effect grade (Avena fatua) | M: Abutilon theophrasti, herbicidal effect grade (Abutilon theophrasti) | O: Chenopodium album, herbicidal effect grade (Chenopodium album) | K: Lolium multiflorum Lam., herbicidal effect (criteria 0-5) (Lolium multiflorum Lam.) | c: corn, effect on crop (criteria 0-5) (corn) | d: soybean, effect on crop (criteria 0-5) (soybean) | g: rapeseed, effect on crop (criteria 0-5) (rapeseed) |
| --- | --- | --- | --- | --- | --- | --- | --- | --- | --- | --- | --- |
| CC(CC1CC(O)=C(c2c(C)cc(C)cc2C)C1=O)=NOCC(C)Cl (centres unmarked) [1-121] | 3 (Herbicidal ratio of 40% or higher and lower than 70%) | 1 (Herbicidal ratio of 5% or higher and lower than 20%) | 5 (Herbicidal ratio of 90% or more (almost completely withered)) | 5 (Herbicidal ratio of 90% or more (almost completely withered)) | 1 (Herbicidal ratio of 5% or higher and lower than 20%) | 0 (Herbicidal ratio of 5% or lower (almost no effect)) | 0 (Herbicidal ratio of 5% or lower (almost no effect)) | 5 (Herbicidal ratio of 90% or more (almost completely withered)) | 5 (Herbicidal ratio of 90% or more (almost completely withered)) | 2 (Herbicidal ratio of 20% or higher and lower than 40%) | 5 (Herbicidal ratio of 90% or more (almost completely withered)) |
| CON=C(C)CC1CC(OS(=O)(=O)N(C)C)=C(c2c(C)cc(C)cc2C)C1=O (centres unmarked) [1-122] | 0 (Herbicidal ratio of 5% or lower (almost no effect)) | 0 (Herbicidal ratio of 5% or lower (almost no effect)) | 5 (Herbicidal ratio of 90% or more (almost completely withered)) | 5 (Herbicidal ratio of 90% or more (almost completely withered)) | 2 (Herbicidal ratio of 20% or higher and lower than 40%) | 0 (Herbicidal ratio of 5% or lower (almost no effect)) | 0 (Herbicidal ratio of 5% or lower (almost no effect)) | 5 (Herbicidal ratio of 90% or more (almost completely withered)) | 5 (Herbicidal ratio of 90% or more (almost completely withered)) | 4 (Herbicidal ratio of 70% or higher and lower than 90%) | 5 (Herbicidal ratio of 90% or more (almost completely withered)) |
| CC(CC1CC(O)=C(c2c(C)cc(C)cc2C)C1=O)=NOCC(N)=O (centres unmarked) [1-124] | 0 (Herbicidal ratio of 5% or lower (almost no effect)) | 0 (Herbicidal ratio of 5% or lower (almost no effect)) | 5 (Herbicidal ratio of 90% or more (almost completely withered)) | 5 (Herbicidal ratio of 90% or more (almost completely withered)) | 0 (Herbicidal ratio of 5% or lower (almost no effect)) | 0 (Herbicidal ratio of 5% or lower (almost no effect)) | 0 (Herbicidal ratio of 5% or lower (almost no effect)) | 4 (Herbicidal ratio of 70% or higher and lower than 90%) | 4 (Herbicidal ratio of 70% or higher and lower than 90%) | 0 (Herbicidal ratio of 5% or lower (almost no effect)) | 4 (Herbicidal ratio of 70% or higher and lower than 90%) |
| CC(CC1CC(O)=C(c2c(C)cc(C)cc2C)C1=O)=NOCC[S+](C)[O-] (centres unmarked) [1-125] | 1 (Herbicidal ratio of 5% or higher and lower than 20%) | 0 (Herbicidal ratio of 5% or lower (almost no effect)) | 5 (Herbicidal ratio of 90% or more (almost completely withered)) | 5 (Herbicidal ratio of 90% or more (almost completely withered)) | 3 (Herbicidal ratio of 40% or higher and lower than 70%) | 0 (Herbicidal ratio of 5% or lower (almost no effect)) | 0 (Herbicidal ratio of 5% or lower (almost no effect)) | 5 (Herbicidal ratio of 90% or more (almost completely withered)) | 3 (Herbicidal ratio of 40% or higher and lower than 70%) | 0 (Herbicidal ratio of 5% or lower (almost no effect)) | 3 (Herbicidal ratio of 40% or higher and lower than 70%) |
| C=C(C)CN(CC)C(=O)OC1=C(c2c(C)cc(C)cc2C)C(=O)C(CC(C)=NOC)C1 (centres unmarked) [1-130] | 0 (Herbicidal ratio of 5% or lower (almost no effect)) | 0 (Herbicidal ratio of 5% or lower (almost no effect)) | 4 (Herbicidal ratio of 70% or higher and lower than 90%) | 5 (Herbicidal ratio of 90% or more (almost completely withered)) | 0 (Herbicidal ratio of 5% or lower (almost no effect)) | 0 (Herbicidal ratio of 5% or lower (almost no effect)) | 0 (Herbicidal ratio of 5% or lower (almost no effect)) | 5 (Herbicidal ratio of 90% or more (almost completely withered)) | 1 (Herbicidal ratio of 5% or higher and lower than 20%) | 1 (Herbicidal ratio of 5% or higher and lower than 20%) | 5 (Herbicidal ratio of 90% or more (almost completely withered)) |
| CON=C(CC1CC(O)=C(c2c(C)cc(C)cc2C)C1=O)c1ccc(F)cc1 (centres unmarked) [1-133] | 0 (Herbicidal ratio of 5% or lower (almost no effect)) | 0 (Herbicidal ratio of 5% or lower (almost no effect)) | 3 (Herbicidal ratio of 40% or higher and lower than 70%) | 0 (Herbicidal ratio of 5% or lower (almost no effect)) | 0 (Herbicidal ratio of 5% or lower (almost no effect)) | 0 (Herbicidal ratio of 5% or lower (almost no effect)) | 0 (Herbicidal ratio of 5% or lower (almost no effect)) | 5 (Herbicidal ratio of 90% or more (almost completely withered)) | 0 (Herbicidal ratio of 5% or lower (almost no effect)) | 3 (Herbicidal ratio of 40% or higher and lower than 70%) | 4 (Herbicidal ratio of 70% or higher and lower than 90%) |
| CON=C(C)CC1CC(OC(=O)CSc2ccccc2)=C(c2c(C)cc(C)cc2C)C1=O (centres unmarked) [1-134] | 1 (Herbicidal ratio of 5% or higher and lower than 20%) | 3 (Herbicidal ratio of 40% or higher and lower than 70%) | 5 (Herbicidal ratio of 90% or more (almost completely withered)) | 5 (Herbicidal ratio of 90% or more (almost completely withered)) | 2 (Herbicidal ratio of 20% or higher and lower than 40%) | 3 (Herbicidal ratio of 40% or higher and lower than 70%) | 0 (Herbicidal ratio of 5% or lower (almost no effect)) | 5 (Herbicidal ratio of 90% or more (almost completely withered)) | 5 (Herbicidal ratio of 90% or more (almost completely withered)) | 2 (Herbicidal ratio of 20% or higher and lower than 40%) | 4 (Herbicidal ratio of 70% or higher and lower than 90%) |
